Measured values from US12336981B2, “Compounds and compositions for the inhibition of NAMPT” (Valo Health, Inc., priority 2010, dated 2025).
Like-named read-outs stand apart in the source and are kept apart here.

Assays:
NAMPT = target: T1, NAMPT (Homo sapiens, UniProt P43490); experiment: Biochemical inhibition assay: NAMPT enzymatic reaction, NMN quantified by mass spectrometry; details: read-out: Biochem IC50
T1 construct: His tag; host or cells: E. coli
Outline: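 Inhibition of E. coli-expressed His-tagged human NAMPT, measured as NMN formation by mass spectrometry after a 30 min room-temperature reaction containing 1 μM NAM, 100 μM PRPP and 2.5 mM ATP.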

A2780 cells = experiment: In-vitro cell proliferation assay (SRB), A2780 cells; format: cell-based; details: Homo sapiens, A2780, 72 h, A2780 cells, 72 hours, read-out: A2780 IC50
Outline: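 Proliferation is assessed by sulforhodamine B staining following a 72-hour incubation with compound dilutions containing 0.1% DMSO.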

T1 sequence (P43490 whole entry): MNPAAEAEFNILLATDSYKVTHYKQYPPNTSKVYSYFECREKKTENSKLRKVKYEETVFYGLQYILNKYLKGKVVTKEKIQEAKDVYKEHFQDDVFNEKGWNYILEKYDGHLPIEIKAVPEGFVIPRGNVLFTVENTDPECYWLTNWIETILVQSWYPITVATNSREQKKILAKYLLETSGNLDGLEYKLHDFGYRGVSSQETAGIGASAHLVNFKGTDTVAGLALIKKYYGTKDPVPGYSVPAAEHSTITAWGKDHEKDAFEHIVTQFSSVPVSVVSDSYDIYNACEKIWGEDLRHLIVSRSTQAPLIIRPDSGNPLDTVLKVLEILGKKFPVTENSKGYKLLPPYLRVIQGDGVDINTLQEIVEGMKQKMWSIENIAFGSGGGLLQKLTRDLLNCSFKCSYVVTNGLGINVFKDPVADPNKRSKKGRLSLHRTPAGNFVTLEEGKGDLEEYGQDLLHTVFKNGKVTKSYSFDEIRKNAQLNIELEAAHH

O=C(NCc1ccc(S(=O)(=O)c2ccc(F)cc2C(F)(F)F)cc1)c1cc2cnccc2[nH]1
IC50 (NAMPT; NAMPT enzymatic assay): 27 nM | IC50 (A2780 cells; SRB): 14.1 nM

CN(C)Cc1cccc(S(=O)(=O)c2ccc(CNC(=O)c3cc4ccncc4o3)cc2)c1
IC50 (NAMPT; NAMPT enzymatic assay): 4.7 nM | IC50 (A2780 cells; SRB): 6.2 nM

COc1ccc(NS(=O)(=O)c2ccc(CNC(=O)c3cc4cnccc4[nH]3)cc2)c(C)c1 [N-({4-[(4-methoxy-2-methylphenyl)sulfamoyl]phenyl}methyl)-1H-pyrrolo[3,2-c]pyridine-2-carboxamide]
IC50 (NAMPT; NAMPT enzymatic reaction): 1450 nM | IC50 (A2780 cells; SRB assay): > 30000 nM

O=C(NCc1ccc(S(=O)(=O)c2ccccc2)cc1)c1cc(-c2ccccn2)n[nH]1 [N-{[4-(benzenesulfonyl)phenyl]methyl}-3-(pyridin-2-yl)-1H-pyrazole-5-carboxamide]
IC50 (NAMPT; NAMPT enzymatic reaction): 7430 nM | IC50 (A2780 cells; SRB assay): 23400 nM

O=C(NCc1ccc(S(=O)(=O)c2ccc(C(F)(F)F)cn2)cc1)c1cc2ccncc2o1 [N-({4-[5-(trifluoromethyl)pyridine-2-sulfonyl]phenyl}methyl)furo[2,3-c]pyridine-2-carboxamide]
IC50 (NAMPT; NAMPT enzymatic assay): 37 nM | IC50 (A2780 cells; SRB): 100 to 1000 nM

Cc1cc(F)cc(S(=O)(=O)c2ccc(CNC(=O)c3cc4ccncc4s3)cc2)c1
IC50 (NAMPT; NAMPT enzymatic reaction): 1 nM | IC50 (A2780 cells; SRB): 0.6 nM

Cc1ccc(Cl)c(S(=O)(=O)c2ccc(CNC(=O)c3cnc4nccn4c3)cc2)c1Cl
IC50 (NAMPT; NAMPT enzymatic reaction): 7.3 nM | IC50 (A2780 cells; SRB): 56 nM

O=C(NCc1ccc(S(=O)(=O)c2ccc(F)c(F)c2)cc1)c1cc2cnccc2[nH]1 [N-({4-[(3,4-difluorobenzene)sulfonyl]phenyl}methyl)-1H-pyrrolo[3,2-c]pyridine-2-carboxamide]
IC50 (NAMPT; NAMPT enzymatic reaction): 13 nM | IC50 (A2780 cells; SRB assay): 14 nM

O=C(NCc1ccc(S(=O)(=O)c2ccc(N3CCOCC3)cc2)cc1)c1ccc2nccn2c1
IC50 (NAMPT; NAMPT enzymatic assay): 3.5 nM | IC50 (A2780 cells; SRB): 0.9 nM

O=C(NCc1ccc(S(=O)(=O)c2ccc(C(F)(F)F)nc2)cc1)c1cc2ccncc2s1 [N-({4-[6-(trifluoromethyl)pyridine-3-sulfonyl]phenyl}methyl)thieno[2,3-c]pyridine-2-carboxamide]
IC50 (NAMPT; NAMPT enzymatic assay): 7.6 nM | IC50 (A2780 cells; SRB): 6.7 nM

Cc1nc(C)c(S(=O)(=O)c2ccc(CNC(=O)c3cnc4[nH]ncc4c3)cc2)s1 [N-{[4-(dimethyl-1,3-thiazole-5-sulfonyl)phenyl]methyl}-1H-pyrazolo[3,4-b]pyridine-5-carboxamide]
IC50 (NAMPT; NAMPT enzymatic assay): 38.6 nM | IC50 (A2780 cells; SRB): 16.4 nM

Cc1ccc(F)cc1S(=O)(=O)c1ccc(CNC(=O)c2cc3ccncc3s2)cc1 [N-({4-[(5-fluoro-2-methylbenzene)sulfonyl]phenyl}methyl)thieno[2,3-c]pyridine-2-carboxamide]
IC50 (NAMPT; NAMPT enzymatic reaction): 3 nM | IC50 (A2780 cells; SRB assay): 9.4 nM

CCOc1ccc(Cl)cc1S(=O)(=O)c1ccc(CNC(=O)c2ccc3nccn3c2)cc1
IC50 (NAMPT; NAMPT enzymatic reaction): 2.2 nM | IC50 (A2780 cells; SRB): 0.5 nM

O=C(NCc1ccc(S(=O)(=O)c2cc(Cl)cc(C(F)(F)F)c2)cc1)c1cnc2nccn2c1
IC50 (NAMPT; NAMPT enzymatic assay): 4.4 nM | IC50 (A2780 cells; SRB): 0.4 nM

COc1c(Cl)ccc(S(=O)(=O)c2ccc(CNC(=O)c3cnc4nccn4c3)cc2)c1Cl
IC50 (NAMPT; NAMPT enzymatic reaction): 6.6 nM | IC50 (A2780 cells; SRB): 25.5 nM

COc1c(F)cccc1S(=O)(=O)c1ccc(CNC(=O)c2cc3ccncc3o2)cc1
IC50 (NAMPT; NAMPT enzymatic reaction): 16.6 nM | IC50 (A2780 cells; SRB): 30.9 nM

Cc1ccc(S(=O)(=O)c2ccc(CNC(=O)c3cc4cnccc4[nH]3)cc2)cc1F [N-({4-[(3-fluoro-4-methylbenzene)sulfonyl]phenyl}methyl)-1H-pyrrolo[3,2-c]pyridine-2-carboxamide]
IC50 (NAMPT; NAMPT enzymatic reaction): 8 nM | IC50 (A2780 cells; SRB assay): 6 nM

O=C(NCc1ccc(S(=O)(=O)c2cccnc2N2CCOCC2)cc1)c1cnc2nccn2c1 [N-({4-[2-(morpholin-4-yl)pyridine-3-sulfonyl]phenyl}methyl)imidazo[1,2-a]pyrimidine-6-carboxamide]
IC50 (NAMPT; NAMPT enzymatic assay): 31.2 nM | IC50 (A2780 cells; SRB): 100 to 1000 nM

COc1ccc(S(=O)(=O)c2ccc(CNC(=O)c3cnc4nccn4c3)cc2)c(Cl)c1
IC50 (NAMPT; NAMPT enzymatic reaction): 6.5 nM | IC50 (A2780 cells; SRB): 66.9 nM

COc1cc(C)cc(S(=O)(=O)c2ccc(CNC(=O)c3cc4ccncc4o3)cc2)c1OC
IC50 (NAMPT; NAMPT enzymatic reaction): 15.2 nM | IC50 (A2780 cells; SRB): 7 nM

COc1ccc(S(=O)(=O)c2ccc(CNC(=O)c3cnc4[nH]ncc4c3)cc2)cc1OC
IC50 (NAMPT; NAMPT enzymatic reaction): 20.6 nM | IC50 (A2780 cells; SRB): 5.6 nM

O=C(NCc1ccc(S(=O)(=O)c2ccccc2C(F)(F)F)cc1)c1cc2cnccc2[nH]1 [N-[(4-{[2-(trifluoromethyl)benzene]sulfonyl}phenyl)methyl]-1H-pyrrolo[3,2-c]pyridine-2-carboxamide]
IC50 (NAMPT; NAMPT enzymatic reaction): 22 nM | IC50 (A2780 cells; SRB assay): 25 nM

Cc1c(Cl)cccc1S(=O)(=O)c1ccc(CNC(=O)c2cc3cnccc3[nH]2)cc1
IC50 (NAMPT; NAMPT enzymatic reaction): 62.5 nM | IC50 (A2780 cells; SRB): 12 nM

O=C(NCc1ccc(S(=O)(=O)c2ccc(Cl)c(C(F)(F)F)c2)cc1)c1cc2ccncc2o1
IC50 (NAMPT; NAMPT enzymatic assay): 6 nM | IC50 (A2780 cells; SRB): 6.9 nM

CCOCc1ccccc1S(=O)(=O)c1ccc(CNC(=O)c2cnc3nccn3c2)cc1
IC50 (NAMPT; NAMPT enzymatic assay): 3.7 nM | IC50 (A2780 cells; SRB): 39.6 nM

CCCCOc1ccc(S(=O)(=O)c2ccc(CNC(=O)c3cc4ccncc4s3)cc2)c(C)c1
IC50 (NAMPT; NAMPT enzymatic reaction): 3.3 nM | IC50 (A2780 cells; SRB): 100 to 1000 nM

CCCOc1ccc(S(=O)(=O)c2ccc(CNC(=O)c3cc4cnccc4[nH]3)cc2)cc1F
IC50 (NAMPT; NAMPT enzymatic reaction): 30.9 nM | IC50 (A2780 cells; SRB): 10.4 nM

O=C(NCc1ccc(S(=O)(=O)c2cccc3ccccc23)cc1)c1cc2ccncc2s1 [N-{[4-(naphthalene-1-sulfonyl)phenyl]methyl}thieno[2,3-c]pyridine-2-carboxamide]
IC50 (NAMPT; NAMPT enzymatic reaction): 2 nM | IC50 (A2780 cells; SRB assay): 0.5 nM

Cc1ccc(S(=O)(=O)c2ccc(CNC(=O)c3cc4ccncc4o3)cc2)c(F)c1
IC50 (NAMPT; NAMPT enzymatic reaction): 12.3 nM | IC50 (A2780 cells; SRB): 25.3 nM

Cc1cc(F)cc(S(=O)(=O)c2ccc(CNC(=O)c3cnc4[nH]ncc4c3)cc2)c1
IC50 (NAMPT; NAMPT enzymatic reaction): 9.5 nM | IC50 (A2780 cells; SRB): 5.6 nM

CC(NC(=O)c1cc2cnccc2[nH]1)c1ccc(S(=O)(=O)N2CCCCC2)cc1 (stereo not shown) [N-{1-[4-(piperidine-1-sulfonyl)phenyl]ethyl}-1H-pyrrolo[3,2-c]pyridine-2-carboxamide]
IC50 (NAMPT; NAMPT enzymatic reaction): 20 nM | IC50 (A2780 cells; SRB assay): 7 nM

COc1ccc(S(=O)(=O)c2ccc(CNC(=O)c3cc4cnccc4[nH]3)cc2)cc1C [N-({4-[(4-methoxy-3-methylbenzene)sulfonyl]phenyl}methyl)-1H-pyrrolo[3,2-c]pyridine-2-carboxamide]
IC50 (NAMPT; NAMPT enzymatic reaction): 10 nM | IC50 (A2780 cells; SRB assay): 2 nM

O=C(NCc1ccc(S(=O)(=O)c2cc(F)cc(C(F)(F)F)c2)cc1)c1cc2cnccc2[nH]1
IC50 (NAMPT; NAMPT enzymatic assay): 26.2 nM | IC50 (A2780 cells; SRB): 3.6 nM

Cc1ccc(Cl)c(S(=O)(=O)c2ccc(CNC(=O)c3cc4ccncc4s3)cc2)c1F
IC50 (NAMPT; NAMPT enzymatic assay): 7.7 nM | IC50 (A2780 cells; SRB): 6.8 nM

COc1cc(OC)cc(S(=O)(=O)c2ccc(CNC(=O)c3cc4ccncc4s3)cc2)c1
IC50 (NAMPT; NAMPT enzymatic reaction): 1.3 nM | IC50 (A2780 cells; SRB): 0.9 nM

O=C(NCc1ccc(S(=O)(=O)c2cccc3ccccc23)cc1)c1cc2ccncc2o1 [N-{[4-(naphthalene-1-sulfonyl)phenyl]methyl}furo[2,3-c]pyridine-2-carboxamide]
IC50 (NAMPT; NAMPT enzymatic assay): 4.9 nM | IC50 (A2780 cells; SRB): 3.1 nM

O=C(NCc1ccc(S(=O)(=O)c2c(Cl)cccc2Cl)cc1)c1cc2ccncc2s1
IC50 (NAMPT; NAMPT enzymatic reaction): 7.6 nM | IC50 (A2780 cells; SRB): 18.2 nM

Cn1cc(S(=O)(=O)c2ccc(CNC(=O)c3cnc4[nH]ncc4c3)cc2)cn1 [N-{[4-(1-methyl-1H-pyrazole-4-sulfonyl)phenyl]methyl}-1H-pyrazolo[3,4-b]pyridine-5-carboxamide]
IC50 (NAMPT; NAMPT enzymatic assay): 182 nM | IC50 (A2780 cells; SRB): 100 to 1000 nM

O=C(NCc1ccc(S(=O)(=O)c2cccc(OC(F)(F)F)c2)cc1)c1cnc2nccn2c1
IC50 (NAMPT; NAMPT enzymatic assay): 2.5 nM | IC50 (A2780 cells; SRB): 2.7 nM

Cc1ccc(S(=O)(=O)c2ccc(CNC(=O)c3cc4cnccc4[nH]3)cc2)c(F)c1 [N-({4-[(2-fluoro-4-methylbenzene)sulfonyl]phenyl}methyl)-1H-pyrrolo[3,2-c]pyridine-2-carboxamide]
IC50 (NAMPT; NAMPT enzymatic reaction): 11 nM | IC50 (A2780 cells; SRB assay): 21 nM

Cc1ccc(S(=O)(=O)c2ccc(CNC(=O)c3ccc4nccn4c3)cc2)c(Cl)c1
IC50 (NAMPT; NAMPT enzymatic reaction): 1.1 nM | IC50 (A2780 cells; SRB): 0.9 nM

CC(C)Oc1ccc(Cl)cc1S(=O)(=O)c1ccc(CNC(=O)c2cnc3[nH]ncc3c2)cc1 [N-[(4-{[5-chloro-2-(propan-2-yloxy)benzene]sulfonyl}phenyl)methyl]-1H-pyrazolo[3,4-b]pyridine-5-carboxamide]
IC50 (NAMPT; NAMPT enzymatic assay): 67.8 nM | IC50 (A2780 cells; SRB): 27.1 nM

CC(C)CNC(=O)c1cccc(S(=O)(=O)c2ccc(CNC(=O)c3cc4ccncc4o3)cc2)c1
IC50 (NAMPT; NAMPT enzymatic assay): 16.9 nM | IC50 (A2780 cells; SRB): 26.3 nM

O=C(NCc1ccc(S(=O)(=O)c2ccccc2)cc1)c1ccc2ccncc2c1 [N-{[4-(benzenesulfonyl)phenyl]methyl}isoquinoline-7-carboxamide]
IC50 (NAMPT; NAMPT enzymatic reaction): 219 nM | IC50 (A2780 cells; SRB assay): 24000 nM

Cc1cc(F)ccc1S(=O)(=O)c1ccc(CNC(=O)c2cc3ccncc3o2)cc1
IC50 (NAMPT; NAMPT enzymatic reaction): 18.7 nM | IC50 (A2780 cells; SRB): 65.1 nM

CCC[C@@H](O)c1ccc(S(=O)(=O)c2ccc(CNC(=O)c3cnc4nccn4c3)cc2)cc1
IC50 (NAMPT; NAMPT enzymatic assay): 4.8 nM | IC50 (A2780 cells; SRB): 14.2 nM

O=C(NCCc1ccc(S(=O)(=O)c2ccccc2)cc1)c1cc2cnccc2[nH]1 [N-{2-[4-(benzenesulfonyl)phenyl]ethyl}-1H-pyrrolo[3,2-c]pyridine-2-carboxamide]
IC50 (NAMPT; NAMPT enzymatic reaction): 410 nM | IC50 (A2780 cells; SRB assay): 9100 nM

CCCCOc1ccc(S(=O)(=O)c2ccc(CNC(=O)c3cc4ccncc4o3)cc2)cc1F
IC50 (NAMPT; NAMPT enzymatic reaction): 12.3 nM | IC50 (A2780 cells; SRB): 13.9 nM

Cn1ncc2c(S(=O)(=O)c3ccc(CNC(=O)c4cc5ccncc5s4)cc3)cccc21 [N-{[4-(1-methyl-1H-indazole-4-sulfonyl)phenyl]methyl}thieno[2,3-c]pyridine-2-carboxamide]
IC50 (NAMPT; NAMPT enzymatic assay): 1.1 nM | IC50 (A2780 cells; SRB): 0.8 nM

O=C(NCc1ccc(S(=O)(=O)c2ccc(F)cc2F)cc1)c1ccc2nccn2c1 [N-({4-[(2,4-difluorobenzene)sulfonyl]phenyl}methyl)imidazo[1,2-a]pyridine-6-carboxamide]
IC50 (NAMPT; NAMPT enzymatic reaction): 28.3 nM | IC50 (A2780 cells; SRB): 28.1 nM
